Test results as given in patent US10323027B2, “2,3-dihydro-4H-1,3-benzoxazin-4-one derivatives as modulators of cholinergic muscarinic M1 receptor” (Takeda Pharmaceutical Company Limited, priority 2015, dated 2019).
Where a name gives a salt, the structure may show the parent alone.

Target: T1, human M1 receptor (hCHRM1) (Homo sapiens, UniProt P11229)
T1 construct: expressed in transfected cells
T1 sequence (P11229 1-460): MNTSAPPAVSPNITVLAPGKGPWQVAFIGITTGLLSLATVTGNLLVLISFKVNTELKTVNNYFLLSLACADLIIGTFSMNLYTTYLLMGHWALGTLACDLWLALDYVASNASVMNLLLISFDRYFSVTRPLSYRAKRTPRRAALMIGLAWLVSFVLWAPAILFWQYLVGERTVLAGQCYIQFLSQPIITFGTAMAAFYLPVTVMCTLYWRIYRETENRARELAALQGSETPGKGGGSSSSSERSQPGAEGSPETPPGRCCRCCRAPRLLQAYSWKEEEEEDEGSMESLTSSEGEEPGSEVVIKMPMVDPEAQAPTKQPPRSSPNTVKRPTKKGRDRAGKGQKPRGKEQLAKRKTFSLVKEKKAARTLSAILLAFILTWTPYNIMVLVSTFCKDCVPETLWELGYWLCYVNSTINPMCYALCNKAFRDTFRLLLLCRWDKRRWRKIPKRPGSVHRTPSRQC
Experiment: Measurement of M1 receptor positive allosteric modulator (M1PAM) activity, Ca2+ fluorescence by FLIPRtetra (Experimental Example 1)
Format: cell-based
Details: for activity (%) at 10 μM: 10 μM test compound, 100% = acetylcholine 1 μM, 0% = DMSO; for EC50: inflection point of concentration-dependent curve, in presence of acetylcholine at EC20 (0.8-1.0 nM), CHO-K1 cells expressing hCHRM1, read-out: IP value
Procedure: Measurement of M1 Receptor Positive Allosteric Modulator (M1PAM) Activity
The activity of a test compound in the presence of acetylcholine at EC20 concentration (final concentration 0.8-1.0 nM), which affords an action corresponding to about 20% of the maximum activity, was measured as PAM activity. The method is as follows. CHO-K1 cells stably expressing a human M1 receptor (hCHRM1) were plated on a 384-well black clear bottom plate (BD Falcon) at 5,000 cells/well, and cultured in an incubator at 37° C., 5% CO2 for 1 day. The medium in the cell plate was removed, and a dye solution (prepared by adding Recording medium (DOJINDO LABORATORIES) to a final concentration of 1×concentration, Fluo-4 AM (DOJINDO LABORATORIES) to a final concentration of 2.5 μg/mL, Pluronic F127 (DOJINDO LABORATORIES) to a final concentration of 0.08%, and probenecid (DOJINDO LABORATORIES) to a final concentration of 1.25 mM to assay buffer (HBSS (Invitrogen), 20 mM HEPES (Invitrogen), 0.1% BSA (Wako Pure Chemical Industries, Ltd.))) was added at 30 μL/well. The cells were left standing in the incubator at 37° C., 5% CO2 for 30 min, and further left standing at room temperature for 30 min. A test compound prepared by diluting with assay buffer containing 3.2-4.0 nM acetylcholine was added at 10 μL/well, and the fluorescence was measured by FLIPRtetra (Molecular Devices) for 1 min every 1 second. With the definition that the amount of change in the fluorescence on addition of acetylcholine (final concentration 1 μM) is 100% and that on addition of DMSO instead of a test compound is 0%, the activity (%) of the test compound was calculated, and the inflection point in the concentration-dependent curve of the test compound was calculated as IP values.

Row | activity (%) at 10 μM [%] | EC50 [nM] | Compound
1 | 101 | 11 | Cc1cc2c(cc1Cc1ccc(-n3cccn3)cc1)C(=O)N([C@H]1CCCC[C@@H]1O)CO2 (relative stereo) [Example 52, 3-(trans-2-hydroxycyclohexyl)-7-methyl-6-(4-(1H-pyrazol-1-yl)benzyl)-2,3-dihydro-4H-1,3-benzoxazin-4-one]
2 | 109 | 1.2 | Cc1c(Cc2ccc(-c3ccn(C)n3)nc2)cc2c(c1C)OCN([C@H]1COCC[C@@H]1O)C2=O [Example 37, 1,5-anhydro-2,4-dideoxy-2-(7,8-dimethyl-6-((6-(1-methyl-1H-pyrazol-3-yl)pyridin-3-yl)methyl)-4-oxo-2H-1,3-benzoxazin-3(4H)-yl)-L-threo-pentitol]
3 | 108 | 7.9 | Cc1ccc(Cc2cc3c(c(C)c2C)OCN([C@H]2COCC[C@@H]2O)C3=O)cn1 (single isomer, unassigned) [Example 7, 1,5-anhydro-2,4-dideoxy-2-(7,8-dimethyl-6-((6-methylpyridin-3-yl)methyl)-4-oxo-2H-1,3-benzoxazin-3(4H)-yl)-threo-pentitol monohydrochloride (optical isomer)]
4 | 92 | 23 | Cc1cc2c(cc1Cc1ccc(-c3cn(C)nn3)cc1)C(=O)N(CC1CCCO1)CO2 (centres unmarked) [Example 61, 7-methyl-6-(4-(1-methyl-1H-1,2,3-triazol-4-yl)benzyl)-3-(tetrahydrofuran-2-ylmethyl)-2,3-dihydro-4H-1,3-benzoxazin-4-one]
5 | 108 | 8 | Cc1c(Cc2ccc(-c3cnn(C)c3)nc2)cc2c(c1C)OCN([C@H]1CCCC[C@@H]1O)C2=O (relative stereo) [Example 49, 3-(trans-2-hydroxycyclohexyl)-7,8-dimethyl-6-((6-(1-methyl-1H-pyrazol-4-yl)pyridin-3-yl)methyl)-2,3-dihydro-4H-1,3-benzoxazin-4-one]
6 | 99 | 21 | COc1ccc(Cc2cc3c(c(C)c2C)OCN([C@H]2COCC[C@@H]2O)C3=O)cc1 (relative stereo) [Example 59, 1,5-anhydro-2,4-dideoxy-2-(6-(4-methoxybenzyl)-7,8-dimethyl-4-oxo-2H-1,3-benzoxazin-3(4H)-yl)-threo-pentitol]
7 | 106 | 7.4 | COc1c(Cc2ccc(-n3ccnc3)nc2)cc2c(c1F)OCN([C@H]1CCC[C@@H]1O)C2=O (relative stereo) [Example 48, 8-fluoro-3-(trans-2-hydroxycyclopentyl)-6-((6-(1H-imidazol-1-yl)pyridin-3-yl)methyl)-7-methoxy-2,3-dihydro-4H-1,3-benzoxazin-4-one]
8 | 102 | 7 | Cc1ccc(Cc2cc3c(c(Cl)c2C)OCN([C@H]2COCC[C@@H]2O)C3=O)cn1 [Example 6, 1,5-anhydro-2-(8-chloro-7-methyl-6-((6-methylpyridin-3-yl)methyl)-4-oxo-2H-1,3-benzoxazin-3(4H)-yl)-2,4-dideoxy-L-threo-pentitol]
9 | 104 | 1.8 | Cn1cc(-c2ccc(Cc3cc4c(c5ccccc35)OCN([C@H]3CCCC[C@@H]3O)C4=O)cn2)cn1 (relative stereo) [Example 41, 3-(trans-2-hydroxycyclohexyl)-6-((6-(1-methyl-1H-pyrazol-4-yl)pyridin-3-yl)methyl)-2,3-dihydro-4H-naphtho[2,1-e][1,3]oxazin-4-one]
10 | 102 | 8.6 | Cc1c(Cc2ccc(-n3cccn3)cc2)cc2c(c1F)OCN([C@H]1CCC[C@@H]1O)C2=O (relative stereo) [Example 30, 8-fluoro-3-(trans-2-hydroxycyclopentyl)-7-methyl-6-(4-(1H-pyrazol-1-yl)benzyl)-2,3-dihydro-4H-1,3-benzoxazin-4-one]
11 | 106 | 16 | O=C1c2cc(CN3CCSCC3)c3ccccc3c2OCN1[C@H]1CCC[C@@H]1O [Example 57, 3-((1S,2S)-2-hydroxycyclopentyl)-6-(thiomorpholin-4-ylmethyl)-2,3-dihydro-4H-naphtho[2,1-e][1,3]oxazin-4-one]
12 | 110 | 5.3 | Cn1cc(-c2ccc(Cc3cc4c(c5ccccc35)OCNC4=O)cn2)cn1 [Example 47, 6-((6-(1-methyl-1H-pyrazol-4-yl)pyridin-3-yl)methyl)-2,3-dihydro-4H-naphtho[2,1-e][1,3]oxazin-4-one]
13 | 97 | 81 | O=C1NCOc2c1cc(Cc1ccc(Cl)nc1)c1ccccc21 [Example 80, 6-((6-chloropyridin-3-yl)methyl)-2,3-dihydro-4H-naphtho[2,1-e][1,3]oxazin-4-one]
14 | 105 | 0.69 | Cc1c(Cc2ccc(-c3ccn(C)n3)nc2)cc2c(c1F)OCN([C@H]1CCC[C@@H]1O)C2=O [Example 22, 8-fluoro-3-((1S,2S)-2-hydroxycyclopentyl)-7-methyl-6-((6-(1-methyl-1H-pyrazol-3-yl)pyridin-3-yl)methyl)-2,3-dihydro-4H-1,3-benzoxazin-4-one]
15 | 99 | 1.5 | CCc1ccc(Cc2cc3c(c4ccccc24)OCN([C@H]2COCC[C@@H]2O)C3=O)cn1 [Example 38, 1,5-anhydro-2,4-dideoxy-2-(6-((6-ethylpyridin-3-yl)methyl)-4-oxo-2H-naphtho[2,1-e][1,3]oxazin-3(4H)-yl)-L-threo-pentitol]
16 | 93 | 2.4 | O=C1c2cc(Cc3ccc(Cl)nc3)c3ccccc3c2OCN1[C@H]1CCC[C@@H]1O [Example 43, 6-((6-chloropyridin-3-yl)methyl)-3-((1S,2S)-2-hydroxycyclopentyl)-2,3-dihydro-4H-naphtho[2,1-e][1,3]oxazin-4-one]
17 | 104 | 59 | COc1c(Cc2ccc(-c3cnn(C)c3)nc2)cc2c(c1F)OCN(CC1CCCO1)C2=O (centres unmarked) [Example 74, 8-fluoro-7-methoxy-6-((6-(1-methyl-1H-pyrazol-4-yl)pyridin-3-yl)methyl)-3-(tetrahydrofuran-2-ylmethyl)-2,3-dihydro-4H-1,3-benzoxazin-4-one]
18 | 99 | 3.9 | Cc1c(Cc2ccc(C#N)cc2)cc2c(c1C)OCN([C@H]1CCC[C@@H]1O)C2=O [Example 44, 4-((3-((1S,2S)-2-hydroxycyclopentyl)-7,8-dimethyl-4-oxo-3,4-dihydro-2H-1,3-benzoxazin-6-yl)methyl)benzonitrile]
19 | 96 | 11 | Cc1c(Cc2ccc(-n3cccn3)cc2)cc2c(c1C)OCN([C@H]1CCCC[C@@H]1O)C2=O (relative stereo) [Example 53, 3-(trans-2-hydroxycyclohexyl)-7,8-dimethyl-6-(4-(1H-pyrazol-1-yl)benzyl)-2,3-dihydro-4H-1,3-benzoxazin-4-one]
20 | 104 | 63 | O=C1c2cc(CN3CCOCC3)c3ccccc3c2OCN1[C@H]1CCC[C@@H]1O [Example 77, 3-((1S,2S)-2-hydroxycyclopentyl)-6-(morpholin-4-ylmethyl)-2,3-dihydro-4H-naphtho[2,1-e][1,3]oxazin-4-one]
21 | 105 | 45 | Cc1c(Cc2ccc(Cl)nc2)cc2c(c1F)OCN([C@H]1COCC[C@@H]1O)C2=O [Example 19, 1,5-anhydro-2-(6-((6-chloropyridin-3-yl)methyl)-8-fluoro-7-methyl-4-oxo-2H-1,3-benzoxazin-3(4H)-yl)-2,4-dideoxy-L-threo-pentitol]
22 | 109 | 4.9 | COc1ccc(Cc2cc3c(c4ccccc24)OCN([C@H]2COCC[C@@H]2O)C3=O)cn1 [Example 46, 1,5-anhydro-2,4-dideoxy-2-(6-((6-methoxypyridin-3-yl)methyl)-4-oxo-2H-naphtho[2,1-e][1,3]oxazin-3(4H)-yl)-L-threo-pentitol]
